Like-named read-outs stand apart in the source and are kept apart here.

In data set [1] the test system is conversion of Amadori compounds to post Amadori advanced glycation endproducts (bovine serum albumin glycated by ribose). Put plainly: Interrupted glycation: post-Amadori AGE formation of bovine serum albumin by ribose. The data set is classed as biochemical. The procedure: FIG. 2 is graph depicting the effect of dipyridoxylamine (BST-4500) on post-Amadori AGE formation during interrupted glycation of bovine serum albumin by ribose. Modification with ribose was done at 37° C. in 0.2 M phosphate buffer of pH 7.5 containing 0.02% sodium azide. The solutions were kept in capped tubes and opened only to remove timed aliquots that were immediately frozen for later carrying out the various analyses. “Interrupted glycation” experiments were carried out by first incubating protein with the ribose at 37° C. for 8 or 24 h, followed by immediate and extensive dialysis against frequent cold buffer changes at 4° C. The samples were then reincubated by quickly warming to 37° C. in the absence of external ribose. Aliquots were taken and frozen at various intervals for later analysis.
The interrupted glycation method for following post-Amadori kinetics of AGE formation allows for the rapid quantitative study of “late” stages of the glycation reaction. Importantly, this method allows for inhibition studies that are free of pathways of AGE formation which arise from glycoxidative products of free sugar or Schiff base (Namiki pathway).
In comparison, in a similar experiment, pyridoxamine inhibited the conversion of Amadori compounds to post Amadori advanced glycation endproducts with a half-maximal inhibitory concentration of approximately 3 mM. Thus, the post-Amadori-inhibitory activity of dipyridoxylaminc is approximately 750-fold greater than that of pyridoxamine.

Data set [2] concerns normal human epidermal keratinocytes. Put plainly: Neutral red uptake bioassay using normal human epidermal keratinocytes. The data set is classed as cell-based. The conditions noted are these: for HuLC50: preliminarily estimated concentration for half-maximal toxicity, neutral red uptake, normal human epidermal keratinocytes. As for the experimental part: A neutral red uptake bioassay using normal human epidermal keratinocytes was then conducted to preliminarily estimate the toxicity (HuLC50) of dipyridoxylamine relative to pyridoxamine. The bioassay was conducted according to standard protocols. (Borenfreund et al., J. Tissue Culture Methods 9:7-9, 1984; Heimann, et al., Cancer Res. 43:4856-4862, 1983; Shopsis et al., in “Alternative Methods in Toxicology,” Vol. 6, AM Goldberg (Ed), Mary Ann Liebert, Inc., N.Y., p. 253-263, 1988) The preliminarily estimated concentration for half-maximal toxicity was then divided by the half maximal inhibition of post-Amadori AGE formation to derive a therapeutic index ratio.

Where [3] appears, read: half maximal inhibition of post-Amadori AGE formation, read-out: IC50.

`Cc1ncc(CO)c(CNCc2c(CO)cnc(C)c2O)c1O` [Dipyridoxylamine]: the IC50 in data set [1] (setting [3]) is 4 µM; in data set [1] (interrupted glycation of BSA by ribose, 37° C., 0.2 M phosphate buffer pH 7.5, read-out: half-maximal inhibitory concentration for inhibiting the conversion of Amadori compounds to post Amadori advanced glycation endproducts), around 4 µM. Further, the “post-Amadori-inhibitory activity relative to pyridoxamine” value in data set [1] (ratio of half-maximal inhibitory concentrations, versus pyridoxamine) was “approximately 750 fold”. Moreover, the “toxicity relative to pyridoxamine” value in data set [2] (neutral red uptake bioassay, in words) was “mildly more toxic than pyridoxamine”. Also, the HuLC50 in data set [2] was 1.8 mM.
As for `Cc1ncc(CO)c(CN)c1O` [Pyridoxamine, pyridoxamine, reference compound], the IC50 in data set [1] (setting [3]) was 3000 µM; in data set [1] (in a similar experiment (interrupted glycation), read-out: half-maximal inhibitory concentration for inhibiting the conversion of Amadori compounds to post Amadori advanced glycation endproducts) it was around 3000 µM. For the same molecule, the HuLC50 in data set [2] is 16.7 mM.

These data come from US6342500B1, “Post-Amadori inhibitors of Advanced Glycation reactions” (Kansas University Medical Center, priority 1999, dated 2002).
